Laboratory results as given in US5393744A, “Glucosyl phosphotriesters of thymidine” (Institut Pasteur, priority 1988, dated 1995).

Legend:
Assay type in all cases: cell-based
HIV-1 virus [1] = assay: Replication of HIV-1 in macrophages of sero-negative donors, continuous culture (reverse transcriptase activity)
Protocol: (§1) The drugs 6651, AZT, 6714 and ddT were diluted in DMSO.
(§2) The virus HIV-1 utilized is derived from a culture supernatant of CEM-LAV 1 cells; these latter are maintained by the addition at each passage (every 3 or 4 days) of uninfected CEM cells. The titre of the virus in the clarified culture supernatant is higher than 10^6 cpm/ml in reverse transcriptase activity and 10^3 infectious units/ml on lymphocytes of sero-negative donors.
(§3) The macrophages were obtained from a deleucocytation pocket. The mononucleated cells were separated on a Ficoll^R gradient. The cells were adjusted to 50.10^6 cells/ml in the RPMI 1640 medium (MBA) containing 20% fetal calf serum (Flow), 10 mM Hepes (Sigma), 1% of PSN and 1% of glutamine (Gibco). After 1 h of incubation at 4° C. with gentle shaking, the macrophages agglutinate among themselves. The agglutinated macrophages are sedimented for 15 mn at 4° C. The supernatant containing an enrichment in lymphocytes was removed and the pellet enriched in macrophages was diluted to 5.10^6 cells/ml in the medium previously described. The cell suspension was then placed in Petri dishes of 60 mm diameter and placed at 37° C. for 1 h 30. The unattached cells are removed and the washed cell carpet was then detached with a scraper. The cells thus recovered were used directly for the study.
(§4) For this study, the production of HIV-1 virus by infected macrophages in the presence or absence of the drugs 6714 or ddT and 6651 or AZT were monitored either in continuous culture for at least 30 days or after lysis of the macrophages at day +14 and infection of lymphocytes by this lysate.
For each test, 15.10^6 cells were or were not infected with the HIV-1 virus (6000 cpm/10^6 cells). After 1 h of absorption at 37° C., the cells were placed in 6-wells Costar plates and 5.10^-5 M or 10^-5 M of the drugs 6714 and ddT and 10^-5 M, 10^-6 M or 10^-7 M of the drugs 6651 and AZT were added to the culture medium. The medium was changed every 3 or 4 days and the reverse transcriptase activity was determined in the culture supernatant. The drugs were added at each passage to the culture medium at the respective concentrations indicated above.
(§5) 3) Measurement of the reverse transcriptase activity
(§6) The reverse transcriptase activity is assayed starting from 1 ml of culture supernatant concentrated 100 times by ultra-centrifugation for 5 mn at 95.000 rpm (Rotor TL 100^R Beckman).
(§7) The pellet is resuspended in 10 μl of NTE Triton^R ×100 0.1%.
(§8) After 1 h at 37° C., the acid-insoluble products are precipitated by 20% trichloroacetic acid, filtered onto 0.45μ Millipore^R and the B radioactivity is measured with the aid of a Kontron scintillation counter.

[2] = test system: recombinant retrovirus of murine origin (MoMLV); assay: Residual virus (clones of βgal+ cells) after infection of mouse 3T3 test cells with LacZ recombinant MoMLV retrovirus; conditions: 3T3 cells; for residual virus (% not inhibited) at 100 µM / residual virus (% not inhibited) at 10 µM / residual virus (% not inhibited) at 1 µM / residual virus (% not inhibited) at 0.1 µM: NIH3T3, 48 hours after infection, mean of several experiments, read-out: % of the residual virus (not inhibited by the product); for residual virus (% not inhibited) at 100 µM: 10^-4 M; for residual virus (% not inhibited) at 10 µM: 10^-5 M; for residual virus (% not inhibited) at 1 µM: 10^-6 M; for residual virus (% not inhibited) at 0.1 µM: 10^-7 M
Protocol: The virus used is a recombinant retrovirus of murine origin (MoMLV) in which a reporter gene (LacZ) has been introduced.
Fixed amounts of LacZ recombinant retroviruses are placed in the presence of mouse infectable test cells (3T3) with or without the product to be tested. To each recombinant retrovirus corresponds a clone of β gal^+ cells. The number of clones of βgal^+ cells is read 48 hours after the infection. The % of the residual virus (not inhibited by the product) is indicated in the following table (mean of several independent experiments): […]

HIV-1 virus [3] = assay: Infection of activated lymphocytes by the lysates of infected macrophages (co-culture, reverse transcriptase activity)
Protocol: as §1, §2
The lymphocytes were isolated from the peripheral blood of sero-negative donors on a Ficoll^R gradient (MSL, Eurobio). The lymphocytes thus obtained were stimulated with the phytohemaglutinin p(PHA-p) for 3 days before their utilization.
The lymphocytes are cultivated in RPMI 1640 medium, supplemented with 10% of fetal calf serum, 10% of interleukin 2, 2 μg/ml of polybrene, 1% of glutamine, 1% of antibiotics.
as §3, §4
The quantity of cells placed in culture and the conditions of infection are identical with those previously described.
At day 14 after infection, the macrophages were lysed by two successive freezings to -20° C. and thawings at 37° C. The lysate recovered was then utilized as inoculum to infect 3.10^6 activated lymphocytes derived from a sero-negative donor. After 1 h of absorption, the lymphocytes were adjusted to 10^6 cells per ml and the drugs were added at the concentrations corresponding to those of the lysate.
The lymphocytes were subcultured every 3 or 4 days and an assay of the reverse transcriptase was carried out starting from the culture supernatant at each passage.
as §5, §6, §7, §8

`Cc1cn([C@H]2C[C@H](N=[N+]=[N-])[C@@H](CO)O2)c(=O)[nH]c1=O` [AZT, 3'-azido 3'-deoxythymidine, reference compound] was tested, and the “proliferation of the HIV-1 virus in the macrophages” value (HIV-1 virus [1]; 10^-5 M, 10^-6 M and 10^-7 M) was “block the proliferation of the HIV-1 virus in the macrophages”, the residual virus (% not inhibited) at 100 µM [2] was 0% and the residual virus (% not inhibited) at 10 µM [2] was 0%. The residual virus (% not inhibited) at 1 µM [2] was 0%, the residual virus (% not inhibited) at 0.1 µM [2] was 1% and the “retroviral activity (in words)” value ([2]; recombinant MoMLV) was “active by themselves”. The “viral production on the lymphocytes with the lysates of treated macrophages” value (HIV-1 virus [3]; 10^-5 M, 10^-6 M and 10^-7 M (FIG. 4d)) was “no viral production is obtained on the lymphocytes” and the “multiplication of the HIV-1 virus at the interior of the macrophage” value (HIV-1 virus [3]; whatever the concentration tested, 10^-5 M, 10^-6 M and 10^-7 M) was “there is no multiplication of the HIV-1 virus at the interior of the macrophage”.
`Cc1cn([C@H]2C[C@H](N=[N+]=[N-])[C@@H](COP(=O)(O)OC[C@H]3OC(O)[C@H](O)[C@@H](O)[C@@H]3O)O2)c(=O)[nH]c1=O` (stereo partly shown) [compound 6715, 6-glucosyl 5' (3'-azido)-thymidinyl phosphate] gave a residual virus (% not inhibited) at 100 µM [2] of 0%, a residual virus (% not inhibited) at 10 µM [2] of 0% and a residual virus (% not inhibited) at 1 µM [2] of 3%.
In the case of `Cc1cn([C@H]2CC[C@@H](CO)O2)c(=O)[nH]c1=O` [ddT, 3'-deoxy-thymidine, reference compound], the “proliferation of the HIV-1 virus in the macrophages” value (HIV-1 virus [1]; 5.10^-5 M and 10^-5 M) is reported as “block the proliferation of the HIV-1 virus in the macrophages”, the residual virus (% not inhibited) at 10 µM [2] is reported as 78% and the residual virus (% not inhibited) at 1 µM [2] is reported as 87%. For the same compound, the residual virus (% not inhibited) at 0.1 µM [2] was 101%, the “viral production by activated lymphocytes” value (HIV-1 virus [3]; 5.10^-5 M) was “seems to be lower” and the “viral production by activated lymphocytes, compared to untreated lysate” value (HIV-1 virus [3]; 10^-5 M) was “comparable to the untreated lysate”. For the same compound, the “viral production by activated lymphocytes with lysates of infected treated macrophages (general statement)” value (HIV-1 virus [3]; lysate at day 14) was “make it possible to obtain a vital production by activated lymphocytes” and the “multiplication of the HIV-1 virus in the macrophages” value (HIV-1 virus [3]; whatever the concentration tested, 5.10^-6 M or 10^-5 M) was “there is multiplication of the HIV-1 virus in the macrophages, but the escape of the virus seems to be blocked”.
`CCCCCCCCCCCCCCCCOP(=O)(OCC1CCC(n2cc(C)c(=O)[nH]c2=O)O1)OCC1OC(O)C(O)C(O)C1O` (stereo not shown) [compound 6650, 6-glucosyl hexadecyl 5'-(3'-deoxy) thymidinyl] was tested, and the residual virus (% not inhibited) at 10 µM [2] was 79%, the residual virus (% not inhibited) at 1 µM [2] was 78% and the residual virus (% not inhibited) at 0.1 µM [2] was 96%.
